Data: patent publication US10945994B2, “Combinations comprising a pyrrolidine-2,5-dione IDO1 inhibitor and an anti-body” (Pfizer Inc., priority 2015, dated 2021)

Legend:
mouse TDO2 = mouse TDO2 (Mus musculus (Mouse), UniProt P48776); test: TDO2 activity assay in P815 mouseTDO2 clone 12 cells; format: cell-based
Description: P815 mTDO2 c112 cells were generated as described in Pilotte et al, Proc Natl Acad Sci, 109(7): 2497-2502 (2012). They were seeded in 96-well plates (50,000 cells/well), treated with increasing concentrations of compounds and incubated for 16-18 h. Kynurenine concentrations were determined as described above. The reaction was run with single replicate.

[1] = tested on: IDO1-expressing SKOV3 cells co-cultured with human PBMC; test: T cell - SKOV3 co-culture assay with human serum (II.9); format: cell-based; settings: SK-OV-3, read-out: T-cell proliferation in SKOV3 co-culture system (50% serum) IDO1 IC50 ± SD (n)
Description: Three different concentrations of human serum (10%, 25% or 50%) were used to mimic the consequences of protein binding in human. […] T cell proliferation was measured by incorporation of ^3H-thymidine after 48 h of co-culture. IC50 of T cell proliferation, tryptophan (Trp) decrease and kynurenine (Kyn) increase were determined. FIG. 7D illustrates Trp to Kyn conversion in 10% HS. […] FIG. 7F illustrates Trp to Kyn conversion in 50% HS. Tryptophan and kynurenine concentrations in supernatant were assessed using LC-MS/MS after 24 h of co-culture. […]
Human peripheral blood mononuclear cells were isolated from buffy coats, purified by density gradient centrifugation on Lymphoprep™ (StemCell), stimulated with CD3/CD28 beads (Invitrogen) and hIL-2 (Novartis) in IMDM with 10%, 25% or 50% of HS, for 15 min and then added to the SKOV3 plates. […] After an incubation of 24 h, the tryptophan and kynurenine concentrations in conditioned medium were assessed using LC-MS/MS. ^3H-thymidine was added to the co-cultures for another 24 h incubation period. Thymidine incorporation was measured using a TopCount counter (Perkin Elmer). Data were fitted and IC50 determined by using the Prism™ software (GraphPad software Inc.).

[2] = tested on: PancO2 pancreas cancer cells; test: PancO2 syngeneic model survival, combination with anti-CTLA4 antibody; format: in vivo, C57/Bl6 mice; settings: dead when tumor size reached 400 mm^3, anti-CTLA4 200 μg i.p., Compound 2 100 mg/kg BID
Description: In vivo efficacy studies of IDO1 inhibitor were performed on PancO2 syngeneic tumor model of C57/Bl6 mice implanted sub-cutaneously essentially as described in Example II.5. Five million PancO2 pancreas cancer cells were implanted sub-cutaneously to 7 weeks old C57/Bl6 mice (day 0). […] Anti-CTLA4 (Clone 9 h10, 200 μg/mouse, i.p. in PBS) was administered at day 11, 14 and 17. […] Treatment was administered daily until the end of the study. Tumor volume was measured weekly using a caliper device and calculated with the following formula: Tumor volume=0.5×(length×width^2). Mice were considered as dead when tumor size reached 400 mm^3.

TDO2 [3] = molecular target: T1, TDO2 (Homo sapiens (Human), UniProt P48775); test: TDO2 activity assay in A172 and THP-1 cells; format: cell-based
T1 sequence (P48775 whole entry): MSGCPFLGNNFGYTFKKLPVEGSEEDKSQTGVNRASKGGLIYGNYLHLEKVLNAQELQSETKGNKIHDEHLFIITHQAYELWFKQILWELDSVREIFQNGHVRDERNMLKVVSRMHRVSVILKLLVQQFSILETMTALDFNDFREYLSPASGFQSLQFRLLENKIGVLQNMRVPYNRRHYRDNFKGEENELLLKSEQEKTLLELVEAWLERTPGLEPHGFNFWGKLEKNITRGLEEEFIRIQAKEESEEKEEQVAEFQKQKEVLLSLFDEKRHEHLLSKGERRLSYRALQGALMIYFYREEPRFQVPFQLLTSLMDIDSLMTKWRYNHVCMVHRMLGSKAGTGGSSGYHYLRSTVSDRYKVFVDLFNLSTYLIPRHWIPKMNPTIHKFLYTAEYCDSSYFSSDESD
Description: A172 cells were seeded in 96-well plates (12500 cells/well), treated with increasing concentrations of compounds and incubated for 16-18 h at 37° C., 5% CO2. Then TCA was added to the supernatant to stop the reaction. […] Kynurenine concentrations were determined by measuring absorbance at 480 nm. The reaction was run with single replicate.
THP-1 cells were stimulated with 2 ng/ml PMA for 24 h, then seeded in 96-well plates (100,000 cells/well), treated with 2 ng/ml PMA and increasing concentrations of compounds, and incubated for 24 h. Kynurenine concentrations were determined as described above. The reaction was run with single replicate.

IDO1 [4] = molecular target: T2, IDO1 (Homo sapiens (Human), UniProt P14902); test: Human whole blood assay (+ IFNγ/LPS); format: cell-based; settings: conversion with unbound fraction in whole blood 0.419; read-out: unbound IC90, human whole blood
T2 sequence (P14902 whole entry): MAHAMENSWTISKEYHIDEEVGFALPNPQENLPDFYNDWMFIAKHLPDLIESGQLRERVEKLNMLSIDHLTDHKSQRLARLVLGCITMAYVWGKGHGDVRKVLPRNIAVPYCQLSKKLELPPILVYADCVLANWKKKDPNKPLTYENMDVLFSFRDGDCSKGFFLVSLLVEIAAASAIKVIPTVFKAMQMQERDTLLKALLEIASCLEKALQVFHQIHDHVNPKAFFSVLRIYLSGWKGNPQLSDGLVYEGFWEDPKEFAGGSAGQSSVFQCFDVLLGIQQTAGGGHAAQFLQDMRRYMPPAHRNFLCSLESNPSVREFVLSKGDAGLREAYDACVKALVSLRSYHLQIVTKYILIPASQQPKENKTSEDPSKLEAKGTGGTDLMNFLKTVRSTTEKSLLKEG
Description: Human whole blood was collected in sodium heparin and gently mixed. Then 25 mg/mL LPS (Sigma) and 100 ng/mL. IFNg (R&D) was added and transferred immediately to a 96-well U bottom plate, 200 mL per well. […] The final DMSO concentration was 0.5%. Following overnight incubation at 37° C., a 30 mL aliquot was precipitated with 270 mL acetonitrile/HPLC water (70:30), vortexed vigorously, and centrifuged at 3220×g for 15 minutes at 10° C. An aliquot of the supernatant organic solution was diluted in 0.1% Formic acid and spiked with stable labeled isotopes of kynurenine and tryptophan as internal standards prior to analysis. Kynurenine inhibition was determined by dividing the drug treated internal standard adjusted kynurenine counts by the positive control internal standard adjusted value. The no drug treated sample containing DMSO was used as the positive control. […] The IC50 and IC90 calculations were conducted in GraphPad Prism version 6.03.
In order to determine compound potency in a human cellular system, human whole blood was collected from 9 subjects. […] The unbound inhibitor IC50 and IC90 values were computed by applying a conversion for the unbound fraction value in whole blood, 0.419.

TDO2 [5] = molecular target: T1, TDO2; test: Human TDO2 enzymatic assay; format: biochemical
Description: The protocol was adapted from Dolusic et al, 2011. Briefly, the reaction mixture ([…]) contained TRIS buffer (50 mM, pH 7.5), methylene blue (0.125 mM), ascorbic acid (0.25 M), catalase (40 units/mL) and human recombinant TDO2 enzyme (prepared as described in Dolusic et al, 2011; 0.9 mg) with increasing concentrations of compounds (1.0 nM to […]). The reaction was run with single replicate. The reaction was initiated by the addition of the substrate L-tryptophan (1 mM).

IDO1 [6] = molecular target: T2, IDO1; test: IDO1 enzymatic activity by mass spectrometry assay; format: biochemical; settings: human enzyme; varied tryptophan and inhibitor concentrations
Description: (§1) The full length complementary deoxyribonucleic acid (cDNA) for human IDO1 was cloned into a pFastbac-1 based vector and the full length cDNA for mouse and dog was cloned into a pET24a based vector. […] Human IDO1 was expressed in insect cells and purified using Ni affinity column. The mouse and dog IDO1 were expressed in Escherichia coli BL21 (DE3) and purified using a Ni affinity column. To obtain non-tagged, pure, and hemin loaded IDO1, TEV protease treated and tag removed protein was incubated with 10× molar ratio of hemin (dissolved in 25 mM NaOH) to protein at 4° C. overnight followed by size exclusion chromatography (SEC) for human IDO1 and anion exchange and SEC for mouse and dog IDO1.
The inhibition of human, dog and mouse IDO1 was measured by quantitating tryptophan and the generation of kynurenine by MS. […] The HCl stops the enzyme reactions and also converts the N-formyl kynurenine to kynurenine. […] Detection of tryptophan and kynurenine was accomplished following injection of assay reaction (injection loop volume is 10 μL) onto an Agilent Graphite Type D cartridge in 0.01% trifluoroacetic acid (TFA) plus 0.09% formic acid and eluted using 80% acetonitrile, 0.09% formic acid and 0.01% TFA. […]

mouse IDO1 = mouse IDO1 (Mus musculus (Mouse), UniProt P28776); test: IDO1 enzymatic activity by mass spectrometry assay; format: biochemical; settings: MS assay; geometric mean (95% confidence interval); read-out: Enzyme Activity IC50 mouse IDO1
Sequence of mouse IDO1 (P28776 whole entry): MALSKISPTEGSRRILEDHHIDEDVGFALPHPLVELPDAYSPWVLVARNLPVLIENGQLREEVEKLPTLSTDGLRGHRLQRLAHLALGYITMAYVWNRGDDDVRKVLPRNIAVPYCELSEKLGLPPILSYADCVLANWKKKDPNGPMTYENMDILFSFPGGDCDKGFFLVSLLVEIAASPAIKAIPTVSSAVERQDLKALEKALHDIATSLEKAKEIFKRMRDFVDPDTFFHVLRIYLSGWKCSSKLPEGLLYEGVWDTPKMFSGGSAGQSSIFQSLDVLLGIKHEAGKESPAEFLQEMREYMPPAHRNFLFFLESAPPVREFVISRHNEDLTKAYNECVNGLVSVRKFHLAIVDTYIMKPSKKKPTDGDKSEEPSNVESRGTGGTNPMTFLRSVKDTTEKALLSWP
Description: as §1
(§2) The inhibition of human, dog and mouse IDO1 was measured by quantitating tryptophan and the generation of kynurenine by MS. IDO1 enzyme (1 nM) was incubated with various concentrations of the inhibitor ([…] to 1 nM), in duplicate, at room temperature in […] buffer (Mg2+, Ca2+−PBS, 20 mM ascorbic acid, 10 mM methylene blue, 800 nM catalase, […]). […] The HCl stops the enzyme reactions and also converts the N-formyl kynurenine to kynurenine. […] Detection of tryptophan and kynurenine was accomplished following injection of assay reaction (injection loop volume is 10 μL) onto an Agilent Graphite Type D cartridge in 0.01% trifluoroacetic acid (TFA) plus 0.09% formic acid and eluted using 80% acetonitrile, 0.09% formic acid and 0.01% TFA. The finalized RapidFire settings were as follows: aspiration time: 600 ms or until the loop is full per the sip sensor, load time: 5000 ms, elution time: 5000 ms, and re-equilibration time: 500 ms at a flow rate of 1.5 mL/min.

dog IDO1 = dog IDO1 (Canis lupus familiaris, UniProt A0A8I3N1Y1); test: IDO1 enzymatic activity by mass spectrometry assay; format: biochemical; settings: dog enzyme; varied tryptophan and inhibitor concentrations
Sequence of dog IDO1 (A0A8I3N1Y1 1-402): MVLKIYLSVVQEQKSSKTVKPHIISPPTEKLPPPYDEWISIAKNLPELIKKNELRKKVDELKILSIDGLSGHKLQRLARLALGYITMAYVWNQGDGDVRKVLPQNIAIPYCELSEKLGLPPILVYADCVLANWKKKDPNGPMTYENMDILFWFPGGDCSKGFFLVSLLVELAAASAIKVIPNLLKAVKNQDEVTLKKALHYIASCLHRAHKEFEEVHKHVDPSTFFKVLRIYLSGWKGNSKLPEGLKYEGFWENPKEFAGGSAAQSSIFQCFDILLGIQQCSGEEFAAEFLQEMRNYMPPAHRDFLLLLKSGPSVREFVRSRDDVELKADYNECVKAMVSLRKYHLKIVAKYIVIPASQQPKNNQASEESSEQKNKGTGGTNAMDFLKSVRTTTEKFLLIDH
Description: as §1, §2

CT26 tumors = test: CT26 syngeneic colon tumor model, combination with avelumab; format: in vivo, Balb/c mice
From the text: FIGS. 5A-5E show combinatorial anti-tumor effects of an IDO1 inhibitor and an anti-PD-L1 (avelumab) in the sc CT26 syngeneic mouse colon tumor model in Balb/c mice. […] FIGS. 5B-5E show the individual tumor growth curves.
Avelumab is a fully human anti-PD-L1 IgG1 monoclonal antibody, and thus, is not optimized for mouse.

[7] = Compound 1 200 mg/kg BID, Avelumab 10 mg/kg

Sequence of mouse TDO2 (P48776 whole entry): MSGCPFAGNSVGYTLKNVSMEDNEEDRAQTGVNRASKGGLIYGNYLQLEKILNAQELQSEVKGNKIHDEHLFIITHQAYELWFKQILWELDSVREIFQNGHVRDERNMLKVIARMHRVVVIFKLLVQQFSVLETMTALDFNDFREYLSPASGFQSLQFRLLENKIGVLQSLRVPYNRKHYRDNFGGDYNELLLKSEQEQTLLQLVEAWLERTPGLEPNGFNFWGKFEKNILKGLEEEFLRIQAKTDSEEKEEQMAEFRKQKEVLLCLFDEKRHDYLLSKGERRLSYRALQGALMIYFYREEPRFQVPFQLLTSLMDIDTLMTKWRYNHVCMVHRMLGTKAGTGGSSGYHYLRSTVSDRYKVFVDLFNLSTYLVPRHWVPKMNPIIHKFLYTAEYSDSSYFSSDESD

Compound	IC50 (mouse TDO2) [µM]	IC50 [1] [µM]	% Survival at Day 55 [2] [%]	A172 and THP-1 cells TDO2 inhibition (TDO2 [3]; @50 μM)	inhibitory activity in any of the human or mouse TDO2 assays (TDO2 [3]; human biochemical and cellular, murine cellular, concentrations of up to 50 μM)	IC90 (IDO1 [4]) [µM]	IC50 (TDO2 [5]) [µM]	mechanism of inhibition, preferred model fit (IDO1 [6])	IC50 (mouse IDO1) [µM]	mechanism of inhibition, preferred model fit (dog IDO1)	tumor growth inhibition (TGI), summary (CT26 tumors)	% TGI (D15) (CT26 tumors; [7]) [%]	% TGI (D17) (CT26 tumors; [7]) [%]	% TGI (D20) (CT26 tumors; [7]) [%]
O=C1C[C@H](c2c[nH]c3ccc(F)cc23)C(=O)N1 [Compound 2, (−)-(R)-3-(5-fluoro-1H-indol-3-yl)pyrrolidine-2,5-dione]	> 50	0.08 ± 0.05	0	no inhibition	did not display any significant inhibitory activity	5.69	> 50	uncompetitive inhibition	0.73	noncompetitive inhibition				
Avelumab: fully human anti-PD-L1 IgG1 monoclonal antibody											about 50%	54	59	51
